Measured values as given in publication PMC9783881, “Synthesis and Preclinical Evaluation of Small-Molecule Prostate-Specific Membrane Antigen-Targeted Abiraterone Conjugate” (Molecules, 2022).
Like-named read-outs stand apart in the source and are kept apart here.

Columns and labels:
PSMA = test system: PSMA; set-up: method as in PMID 33822606; conditions: PSMA ligand; cited from earlier work
PSA level = test system: PSA level; set-up: method as in PMID 22995653; conditions: cited from earlier work
[1] = mouse, in vivo; cited from earlier work
[2] = Cytotoxicity on human adult dermal fibroblasts, MTT-test; format: cell-based; conditions: human, human adult dermal fibroblasts (HDFa); HDFa, 72 h, MTT
Experimental: Human adult dermal fibroblasts (HDFa). (ATCC) were propagated in DMEM medium (Paneco) supplemented with 10% fetal calf serum (Gibco) and 1% pemicillin/streptomycin in a 5% CO2 atmosphere at 37 °C. Cytotoxicity of PSMA-Abi and AbiAc in fibroblasts were studied using MTT-test. The cells in the exponential growth phase were trypsinized, counted, and seeded at a density of 5000 cells/well in 96-well plate. Cells were incubated with both tested agents at the designated concentrations (0.4–100 μM) for 72 h; then, each well was treated with 20 μL MTT solution in PBS (5 mg/mL) and cells were incubated at least for 3 h, and formazan was dissolved in DMSO. The absorbance was measured at […] and 620 nm using Thermofischer Scientific Multiscan FC. The values for each point were calculated from 6 wells.

22Rv1 cells = assay: Cell cycle analysis; format: cell-based, human
Experimental: Cell cycle was analyzed in 22Rv1 cells fixed in 70% ethanol with Muse® cell cycle kit. The fixation lasted overnight at −20 °C. Then, cells were collected by centrifugation at 4000 rpm for 10 min and washed with PBS. The cells were resuspended with Muse® Cell Cycle reagent and incubated for 30 min at room temperature in the dark; then, they were counted.

22Rv1 [3] = assay: Single cell ROS measurement with Pt-nanoelectrodes, 22Rv1; format: cell-based, human; conditions: 22Rv1, 1 h incubation, IC50 concentration
Experimental: (§1) Commercially available, disk-shaped carbon nanoelectrodes isolated in quartz (ICAPPIC Limited, London, UK) with diameters of 60–100 nm were used to prepare Pt nanoelectrodes for the amperometric detection of intracellular ROS level. Preparation of Pt-nanoelectrodes has been described in detail previously.
(§2) Briefly, a disk-shaped carbon nanoelectrode was etched in a 0.1 M NaOH, 10 mM KCl solution for 20–40 cycles of 10 seconds (from 0 to +2200 mV) to create nanocavities. Electrochemical deposition of platinum in nanocavities was achieved by cycling from 0 to −800 mV with a scan rate of 200 mV s^−1 for 8 to 10 cycles in 2 mM H2PtCl6 solution in 0.1 M hydrochloric acid. […]
(§3) The setup for amperometric measurements included a PC that was connected to a system consisting of an ADC–DAC converter Axon Digidata 1550B (Axon Instruments, Burlingame, CA, USA) and patch-clamp amplifier MultiClamp 700B (Axon Instruments, USA). […] The potential difference between the Pt-nanoelectrode and the reference electrode was recorded with the pClamp 11 software suite (Molecular Devices, Silicon Valley, CA, USA) and processed with Origin 2018 software.
(§4) PC-3 (2.0 × 10^5)/22Rv1 (3.5 × 10^5) cells were seeded in 35 mm Petri dishes, incubated under the conditions described above, and then treated for 24 h. […] Untreated cells were used as a control, which was evaluated at the beginning and at the end of the experiment. […]

PC-3 [4] = test system: PC-3; set-up: method as in PMID 29310026; conditions: PC-3 cell line; cited from earlier work
22Rv1 [5] = assay: Cytotoxicity (CC50) on 22Rv1 cells; format: cell-based; conditions: Homo sapiens, 22Rv1, read-out: CC50, 22Rv1
Experimental: The in vitro efficacy study of the PSMA-Abi conjugate included an assessment of its cytotoxic potential towards prostate cancer cell cultures (Table 1). […] Thus, we observed an increase in the efficacy of the conjugate towards the PSMA-expressing line. Additionally, an evaluation in a non-tumor model was performed. The toxicity of both compounds was evaluated on human adult dermal fibroblasts (HDFa); both of the agents in the tested concentrations (0.4–100 µM) were non-toxic for human fibroblasts.
22Rv1 and PC-3 cells were received from the MISIS collection of cell lines (less than ten passages from ATCC stock). All cells were cultured in humidified 37 °C incubators with 5% CO2. All cell lines were tested for the absence of mycoplasma. 22Rv1, androgen-responsive PSMA-positive human prostate carcinoma cells, were cultured in RPMI 1640 media (Gibco) with 10% FBS (Gibco), 1× GlutaMax (Gibco), and 1× Penicillin-Streptomycin (10,000 U/mL, Gibco). PC-3, PSMA-negative human prostate cancer cells, were cultured in DMEM/F12 media (Gibco) with 10% FBS (Gibco), 1× GlutaMax (Gibco), and 1× Penicillin-Streptomycin (10,000 U/mL, Gibco).

PC-3 [6] = assay: Single cell ROS measurement with Pt-nanoelectrodes, PC-3; format: cell-based, human; conditions: PC-3, 1 h incubation, IC50 concentration
Experimental: as §1, §2, §3, §4

[7] = test system: 22Rv1 prostate cancer subcutaneous xenograft; assay: 22Rv1 human tumor xenograft mouse model; format: in vivo, Balb/c nude mice; conditions: 22Rv1 xenografts
Experimental: Male, 6–8 week old Balb/c nude mice with body weight range of 20–22 g were purchased from N.N.Blokhin Cancer Research Center. Animals were kept in plastic cages equipped with lids with feeding recesses, air filters, and feed dividers at 2–3 mice per cage.
Mice were injected subcutaneously in the right and left flanks with 1 × 10^7 22Rv1 cells in RPMI-1640 medium 0.2 mL supplemented with 0.2 mL Corning Matrigel® matrix (Corning, NY, USA) in a total volume of 400 μL. When the average size of the tumors reached ~100 mm^3, mice were randomly divided into three groups, with five mice per group, including a vehicle group (1% starch paste) and two treatment groups: PSMA-Abi 500 mg/kg/day and AbiAc 200 mg/kg/day for 14 days. The drugs were administered orally, and all compounds were formulated with 1% starch paste. Following the treatment, the primary tumor size was measured twice weekly with a micro-caliper, and the tumor volume was calculated using the formula: Volume = π/6 × length × width × height. Treatment outcome was based on percentage of tumor growth inhibition (%TGI), defined as the percent difference between the median tumor volumes (MTVs) of mice in the treated and control groups. Percent TGI was calculated using the following formula: %TGI = [1 − (MTV treatment group/MTV control)] 100%. All data are presented as means ± SD. Statistical analyses of in vivo research were performed using SPSS Statistics V. 22.0, comparing continuous variables by non-parametrical Mann–Whitney U. * p ≤ 0.05 was considered as significant in comparison with the control.

[8] = oral x14, PSMA-Abi 500, AbiAc 200 mg/kg/day

Compound: [N-]=[N+]=NCCCNC(=O)[C@H](Cc1ccc(O)cc1)NC(=O)[C@H](Cc1ccccc1)NC(=O)CCC(=O)NCCCCCC(=O)N(CCCC[C@H](NC(=O)N[C@@H](CCC(=O)O)C(=O)O)C(=O)O)Cc1cccc(Cl)c1 [PSMA ligand 1]
- IC50 (PSMA): 0.009 ± 0.003 µM

Compound: C[C@]12CC[C@H](O)CC1=CC[C@@H]1[C@@H]2CC[C@]2(C)C(c3cccnc3)=CC[C@@H]12 [abiraterone]
- patients with PSA level decreased by more than 90% (PSA level; chemotherapy-naïve patients): 40%
- patients with PSA level decreased by more than 50% (PSA level; patients after ketoconazole therapy): 33%
- patients with PSA level decreased by more than 50% (PSA level; patients who had not previously received chemotherapy): 85%

Compound: CC(=O)O[C@H]1CC[C@@]2(C)C(=CC[C@@H]3[C@@H]2CC[C@]2(C)C(c4cccnc4)=CC[C@@H]32)C1 [AbiAc, abiraterone acetate, reference compound]
- LD50 [1]: 800 mg/kg
- CC50 at 72 h [2]: > 100 µM
- S cells (22Rv1 cells; 22Rv1): unaffected
- level of G0/G1 cells (22Rv1 cells; 22Rv1, with increasing concentration): increased
- percentage of 22Rv1 cells in the G2/M phase (22Rv1 cells; with increasing concentration, compared to control cells): decreased
- ROS (hydrogen peroxide) level in single cells (22Rv1 [3]): significantly increased compared to the control
- CC50 (PC-3 [4]): 5.9 ± 0.8 µM
- CC50 (22Rv1 [5]): 22.7 ± 3.3 µM
- ROS (hydrogen peroxide) level in single cells (PC-3 [6]): significantly increased compared to the control
- TGImax (tumor growth inhibition) ([7]; oral x14, PSMA-Abi 500 mg/kg/day, AbiAc 200 mg/kg/day, after the end of treatment): 78%
- TGI, day 15 after start of the treatment [7, 8]: 78%
- TGI, day 18 after start of the treatment [7, 8]: 72%
- TGI, day 22 after start of the treatment [7, 8]: 69%
- Tumor volume (M+SE), day 15 [7, 8]: 547±64 mm3
- Tumor volume (M+SE), day 18 [7, 8]: 811±72 mm3
- Tumor volume (M+SE), day 22 [7, 8]: 997±110 mm3
- Tumor volume (M+SE), day 0 ([7]; start of treatment): 91±20 mm3
